According to patent publication US6440710B1, “Antibody-catalyzed deuteration, tritiation, dedeuteration or detritiation of carbonyl compounds” (The Scripps Research Institute, priority 1998, dated 2002):

Tested on: antibody 38C2
Experiment: antibody 38C2-catalyzed deuterium exchange (deuteration) of ketones and aldehydes in D2O, kinetics by GCMS or 1H-NMR
Format: biochemical
Details: for Km / kcat: 38C2-catalyzed deuteration, D2O, pD 7.4, 25° C.; for Km: Lineweaver-Burk analysis (GCMS); for kcat: per exchange of one hydrogen atom; for kcat/kun: rate enhancement over uncatalyzed background reaction (followed 5 months at 25° C.)
Experimental: Series of reactions were carried out in a 0.1 ml solution containing the appropriate concentration of the carbonyl substrate and antibody 38C2(1.33 μM in the case of cycloheptanone and heptanal, 2.67 μM in the case of 2-heptanone) which was previously dialyzed three times against 0.1 M NaCl in D2O. The reaction mixtures were kept at 25° C. for 10 minutes and then quenched with dichloromethane. The organic layer was separated and analyzed by GCMS (Chemical Ionization) where the different isotopic masses were monitored and integrated. All kinetic parameters are calculated per exchange of one deuterium atom. No background reactions could be detected under these conditions.
The issue of kinetic analyses of these catalytic reactions and structure determination of the deuterium labeled products is not trivial. The common chromatographic methods, such as HPLC, used to monitor protein-catalyzed organic reactions that are carried out at very low concentrations, are not applicable to isotope exchange reactions. Work at low concentrations, at the range of the antibody's Km, is required in order to establish the kinetic parameters of the antibody catalyzed reaction. Consequently, alternative methods such as mass spectrometry and NMR are required. For NMR spectroscopy, deuterated substrates were used and the exchange of ^2H and ^1H was followed by ^1H-NMR. This allows for monitoring the reaction in real time in the presence of antibody and buffer solution. The experiments were carried out in relatively high substrate concentrations, due to the limited sensitivity of the instrument. Most experiments employed deuterated acetonitrile as an internal standard that enables one to quantify the results. It will be appreciated that the employment of NMR techniques is valuable not only for kinetic studies but also for determining the product's stereochemistry as well as the regio, chemo- and enantioselectivity of the reaction.
All reactions were carried out in D2O under neutral conditions (pD 7.4) in the presence of catalytic amounts of the commercially available 38C2 antibody.
The exchange reaction was followed either by mass spectrometry (GCMS.) or by ^1H-NMR. The high sensitivity of the GCMS method with respect to substrate concentration allowed for determination of the kinetic parameters of these reactions (Km and kcat) using Lineweaver-Burk analysis. These measurements are presented in Table 1 hereinunder and FIG. 5.
Although all NMR measurements were carried out under substrate saturation conditions (allowing only for determination of Vmax and kcat, Table 1, above), as further detailed hereinunder, this method provided useful information about the regioselectivity of the reaction in the cases of non-symmetrical ketones and chemoselectivity with polyfunctional carbonyl compounds.
14. The rate of the uncatalyzed reaction was determined by averaging the results of five experiments for each substrate. All reaction mixtures, containing the appropriate substrate (200 μM) and NaCl (0.1 M) in D2O (0.1 mL), were monitored by GCMS-CI. Approximately 1-2% yield was observed after 5 months at 25° C.

| Km | SMILES | kcat | further results |
| --- | --- | --- | --- |
| 16 mM | CCCCCC(C)=O [2-Heptanone, 3, 2-Heptanone] | 0.0583 s⁻¹ | kcat/kun: 6.94 × 10^7 |
| – | CC(=O)C(C)(C)C [3,3-dimethylbutan-2-one] | – | reactivity in the 38C2-catalyzed deuterium exchange reaction (data not shown): absolute inertness |
| – | CC(C)=O [Acetone, 1, Acetone] | 0.0433 s⁻¹ | – |
| – | CCC(C)=O [Butanone, 2, Butanone] | 0.0517 s⁻¹ | – |
| 4.6 mM | O=C1CCCCCC1 [Cycloheptanone, 10, Cycloheptanone] | 0.232 s⁻¹ | kcat/kun: 1.1 × 10^8 |
| – | O=C1CCCC1 [Cyclopentanone, 8, Cyclopentanone] | 0.102 s⁻¹ | – |
| 0.68 mM | CCCCCCCCCC=O [Decanal, 6, Decanal] | 0.0667 s⁻¹ | – |
| – | CCOC(=O)CCCC(C)=O [Ethyl 5-oxohexanoate, 7, Ethyl 5-oxohexanoate] | 0.013 s⁻¹ | – |
| 3.5 mM | CCCCCCC=O [Heptanal, 5, Heptanal] | 0.753 s⁻¹ | – |
| – | CCCCC=O [Valeraldehyde, 4, Valeraldehyde] | 0.0567 s⁻¹ | – |
| – | CC(=O)CC(C)=O [acetylacetone, reference compound] | – | inhibition of the 38C2-catalyzed deuterium exchange reaction (all cases studied by GCMS): effectively inhibited |

| SMILES | Km | kcat | further results |
| --- | --- | --- | --- |
| O=C1CCCCC1 [Cyclohexanone, 9, Cyclohexanone] | 5.2 mM | 3.233 s⁻¹ | kcat/kun: 5.9 × 10^8 |
